Source: doi:10.1101/2023.11.24.568596v1 (biorxiv, 2023)

Legend:
Settings in all cases: binder
[1] = molecular target: GPRK5 (Homo sapiens, UniProt P34947)
[2] = molecular target: T1, Erk7 (Homo sapiens, UniProt Q8TD08)
T1 sequence (Q8TD08 1-544): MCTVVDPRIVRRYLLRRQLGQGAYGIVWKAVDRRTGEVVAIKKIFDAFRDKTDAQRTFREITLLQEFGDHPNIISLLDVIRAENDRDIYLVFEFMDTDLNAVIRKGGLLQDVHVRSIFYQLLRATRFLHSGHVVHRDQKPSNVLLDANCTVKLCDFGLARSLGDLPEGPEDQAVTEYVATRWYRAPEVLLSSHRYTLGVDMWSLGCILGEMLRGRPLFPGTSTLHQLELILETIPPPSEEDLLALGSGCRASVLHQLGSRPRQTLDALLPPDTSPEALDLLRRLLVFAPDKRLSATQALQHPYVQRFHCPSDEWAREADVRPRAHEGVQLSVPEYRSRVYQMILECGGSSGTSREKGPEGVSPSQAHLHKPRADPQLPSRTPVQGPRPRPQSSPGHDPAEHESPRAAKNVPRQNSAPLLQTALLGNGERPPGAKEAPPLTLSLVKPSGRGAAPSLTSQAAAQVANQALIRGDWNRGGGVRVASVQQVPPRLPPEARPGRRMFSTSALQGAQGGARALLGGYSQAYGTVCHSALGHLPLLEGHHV

[3] = molecular target: AKT3 (Homo sapiens, UniProt Q9Y243)
Chain of AKT3 (Q9Y243 whole entry): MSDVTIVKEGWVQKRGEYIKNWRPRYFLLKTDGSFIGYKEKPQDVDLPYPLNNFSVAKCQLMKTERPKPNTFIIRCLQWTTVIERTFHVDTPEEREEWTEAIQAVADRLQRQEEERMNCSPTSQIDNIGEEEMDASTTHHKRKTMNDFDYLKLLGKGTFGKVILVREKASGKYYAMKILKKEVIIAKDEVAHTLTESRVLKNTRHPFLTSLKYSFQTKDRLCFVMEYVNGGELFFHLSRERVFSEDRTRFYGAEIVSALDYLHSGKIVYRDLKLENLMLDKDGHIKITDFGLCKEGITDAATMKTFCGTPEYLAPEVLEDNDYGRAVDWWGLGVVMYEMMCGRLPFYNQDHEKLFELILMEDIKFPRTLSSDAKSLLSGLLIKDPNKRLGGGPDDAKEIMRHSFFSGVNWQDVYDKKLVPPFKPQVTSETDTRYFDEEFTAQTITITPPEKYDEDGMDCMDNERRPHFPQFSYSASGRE

[4] = molecular target: CDKL1 (Homo sapiens, UniProt Q00532)
[5] = molecular target: DYRK1A (Homo sapiens, UniProt Q13627)
[6] = molecular target: T2, MYT1 (Homo sapiens, UniProt Q99640)
T2 sequence (Q99640 1-499): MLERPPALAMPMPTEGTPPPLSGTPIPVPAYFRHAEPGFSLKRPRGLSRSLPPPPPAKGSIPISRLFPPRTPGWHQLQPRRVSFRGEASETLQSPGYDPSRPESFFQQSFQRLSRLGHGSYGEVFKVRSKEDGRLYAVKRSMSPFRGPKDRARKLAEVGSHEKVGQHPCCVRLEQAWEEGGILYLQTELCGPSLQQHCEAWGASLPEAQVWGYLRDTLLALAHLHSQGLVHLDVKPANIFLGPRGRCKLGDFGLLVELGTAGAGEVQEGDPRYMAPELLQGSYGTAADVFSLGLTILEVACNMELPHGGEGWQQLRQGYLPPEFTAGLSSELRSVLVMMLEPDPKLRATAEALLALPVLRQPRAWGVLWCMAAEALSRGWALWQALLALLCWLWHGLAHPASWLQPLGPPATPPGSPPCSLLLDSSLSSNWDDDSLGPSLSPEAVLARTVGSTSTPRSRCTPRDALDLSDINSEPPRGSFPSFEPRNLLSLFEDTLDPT

[7] = molecular target: JNK1 (Homo sapiens, UniProt P45983)
Chain of JNK1 (P45983 whole entry): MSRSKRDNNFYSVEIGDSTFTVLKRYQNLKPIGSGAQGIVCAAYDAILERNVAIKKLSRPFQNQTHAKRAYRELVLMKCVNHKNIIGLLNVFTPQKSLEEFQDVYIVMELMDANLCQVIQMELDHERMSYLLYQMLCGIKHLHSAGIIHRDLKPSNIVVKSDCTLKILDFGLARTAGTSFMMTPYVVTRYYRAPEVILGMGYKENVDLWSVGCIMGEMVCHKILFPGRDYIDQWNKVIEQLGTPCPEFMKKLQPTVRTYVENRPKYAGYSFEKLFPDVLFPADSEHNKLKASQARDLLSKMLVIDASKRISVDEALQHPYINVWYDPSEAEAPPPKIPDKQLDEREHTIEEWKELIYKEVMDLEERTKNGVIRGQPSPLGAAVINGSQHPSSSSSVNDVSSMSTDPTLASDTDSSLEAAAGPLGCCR

[8] = molecular target: CaMK1g (Homo sapiens, UniProt Q96NX5)
Chain of CaMK1g (Q96NX5 whole entry): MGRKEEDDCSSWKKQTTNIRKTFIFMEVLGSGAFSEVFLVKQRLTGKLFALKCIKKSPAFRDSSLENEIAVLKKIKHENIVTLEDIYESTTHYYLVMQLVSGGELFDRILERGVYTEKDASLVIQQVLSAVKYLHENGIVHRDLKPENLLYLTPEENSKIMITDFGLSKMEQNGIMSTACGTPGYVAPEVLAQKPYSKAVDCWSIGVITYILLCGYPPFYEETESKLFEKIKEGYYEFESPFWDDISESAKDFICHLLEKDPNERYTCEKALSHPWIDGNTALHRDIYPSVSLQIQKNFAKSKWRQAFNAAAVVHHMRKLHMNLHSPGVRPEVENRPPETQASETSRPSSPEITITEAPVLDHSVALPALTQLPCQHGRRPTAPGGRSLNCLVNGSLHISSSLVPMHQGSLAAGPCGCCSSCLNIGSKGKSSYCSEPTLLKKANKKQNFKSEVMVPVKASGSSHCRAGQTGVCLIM

[9] = molecular target: FLT1 (Homo sapiens, UniProt P17948)
Chain of FLT1 (P17948 whole entry): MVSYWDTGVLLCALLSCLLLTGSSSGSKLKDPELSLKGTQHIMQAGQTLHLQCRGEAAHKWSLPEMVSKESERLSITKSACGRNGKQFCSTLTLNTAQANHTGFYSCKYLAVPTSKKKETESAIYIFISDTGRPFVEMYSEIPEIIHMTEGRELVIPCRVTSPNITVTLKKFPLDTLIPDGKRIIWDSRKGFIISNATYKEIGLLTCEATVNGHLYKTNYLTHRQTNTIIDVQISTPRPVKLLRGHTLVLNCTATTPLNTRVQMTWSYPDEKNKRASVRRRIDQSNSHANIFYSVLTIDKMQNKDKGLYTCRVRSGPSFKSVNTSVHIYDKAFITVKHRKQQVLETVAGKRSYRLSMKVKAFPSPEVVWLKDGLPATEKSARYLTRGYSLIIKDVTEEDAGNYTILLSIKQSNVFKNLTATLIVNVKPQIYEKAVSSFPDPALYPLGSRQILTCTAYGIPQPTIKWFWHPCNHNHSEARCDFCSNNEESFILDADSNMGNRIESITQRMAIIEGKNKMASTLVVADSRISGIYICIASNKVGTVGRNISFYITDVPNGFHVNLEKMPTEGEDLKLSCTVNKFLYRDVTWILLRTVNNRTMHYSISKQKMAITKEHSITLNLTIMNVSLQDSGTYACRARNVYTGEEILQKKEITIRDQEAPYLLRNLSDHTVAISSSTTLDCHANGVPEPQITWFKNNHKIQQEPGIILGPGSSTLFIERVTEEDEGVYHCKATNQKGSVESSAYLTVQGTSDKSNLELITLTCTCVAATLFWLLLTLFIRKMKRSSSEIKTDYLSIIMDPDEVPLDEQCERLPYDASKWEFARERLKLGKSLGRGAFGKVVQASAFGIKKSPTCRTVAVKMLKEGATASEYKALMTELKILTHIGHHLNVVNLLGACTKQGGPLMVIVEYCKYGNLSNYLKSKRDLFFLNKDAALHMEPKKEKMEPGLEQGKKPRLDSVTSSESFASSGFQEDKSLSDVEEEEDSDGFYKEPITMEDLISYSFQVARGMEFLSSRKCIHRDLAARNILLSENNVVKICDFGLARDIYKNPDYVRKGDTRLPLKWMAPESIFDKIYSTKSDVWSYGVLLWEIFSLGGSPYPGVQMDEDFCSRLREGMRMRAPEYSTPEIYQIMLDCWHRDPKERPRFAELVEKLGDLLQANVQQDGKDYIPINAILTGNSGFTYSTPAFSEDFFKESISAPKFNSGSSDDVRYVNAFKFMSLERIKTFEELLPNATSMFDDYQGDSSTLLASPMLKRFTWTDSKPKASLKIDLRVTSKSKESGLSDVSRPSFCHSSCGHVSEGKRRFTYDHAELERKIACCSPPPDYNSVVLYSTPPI

[10] = molecular target: T3, PHKG2 (Homo sapiens, UniProt P15735)
T3 sequence (P15735 1-406): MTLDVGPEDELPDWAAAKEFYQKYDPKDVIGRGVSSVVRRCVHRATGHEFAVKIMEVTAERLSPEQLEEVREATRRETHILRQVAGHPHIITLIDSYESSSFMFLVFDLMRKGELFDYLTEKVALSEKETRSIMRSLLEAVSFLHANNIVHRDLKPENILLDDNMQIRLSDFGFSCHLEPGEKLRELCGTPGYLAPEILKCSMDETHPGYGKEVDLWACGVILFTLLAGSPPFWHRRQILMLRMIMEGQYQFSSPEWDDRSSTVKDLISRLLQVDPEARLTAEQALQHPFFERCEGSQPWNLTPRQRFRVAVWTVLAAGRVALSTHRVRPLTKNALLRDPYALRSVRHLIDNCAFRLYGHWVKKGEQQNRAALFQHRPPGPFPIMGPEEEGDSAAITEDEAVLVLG

[11] = molecular target: NEK7 (Homo sapiens, UniProt Q8TDX7)
[12] = molecular target: JNK2 (Homo sapiens, UniProt P45984)
Chain of JNK2 (P45984 whole entry): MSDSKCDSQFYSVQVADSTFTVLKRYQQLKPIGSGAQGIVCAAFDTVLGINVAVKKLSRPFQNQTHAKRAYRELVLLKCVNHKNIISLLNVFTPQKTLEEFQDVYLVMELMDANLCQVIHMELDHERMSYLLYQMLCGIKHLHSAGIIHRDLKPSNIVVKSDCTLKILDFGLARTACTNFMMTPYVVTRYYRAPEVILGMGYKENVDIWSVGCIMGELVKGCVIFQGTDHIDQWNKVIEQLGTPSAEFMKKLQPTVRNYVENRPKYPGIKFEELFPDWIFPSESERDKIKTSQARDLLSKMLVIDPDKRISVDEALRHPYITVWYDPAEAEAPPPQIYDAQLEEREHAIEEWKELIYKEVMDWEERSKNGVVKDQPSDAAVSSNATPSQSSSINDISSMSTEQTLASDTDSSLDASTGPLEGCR

[13] = molecular target: MRCKa (Homo sapiens, UniProt Q5VT25)
Chain of MRCKa (Q5VT25 whole entry): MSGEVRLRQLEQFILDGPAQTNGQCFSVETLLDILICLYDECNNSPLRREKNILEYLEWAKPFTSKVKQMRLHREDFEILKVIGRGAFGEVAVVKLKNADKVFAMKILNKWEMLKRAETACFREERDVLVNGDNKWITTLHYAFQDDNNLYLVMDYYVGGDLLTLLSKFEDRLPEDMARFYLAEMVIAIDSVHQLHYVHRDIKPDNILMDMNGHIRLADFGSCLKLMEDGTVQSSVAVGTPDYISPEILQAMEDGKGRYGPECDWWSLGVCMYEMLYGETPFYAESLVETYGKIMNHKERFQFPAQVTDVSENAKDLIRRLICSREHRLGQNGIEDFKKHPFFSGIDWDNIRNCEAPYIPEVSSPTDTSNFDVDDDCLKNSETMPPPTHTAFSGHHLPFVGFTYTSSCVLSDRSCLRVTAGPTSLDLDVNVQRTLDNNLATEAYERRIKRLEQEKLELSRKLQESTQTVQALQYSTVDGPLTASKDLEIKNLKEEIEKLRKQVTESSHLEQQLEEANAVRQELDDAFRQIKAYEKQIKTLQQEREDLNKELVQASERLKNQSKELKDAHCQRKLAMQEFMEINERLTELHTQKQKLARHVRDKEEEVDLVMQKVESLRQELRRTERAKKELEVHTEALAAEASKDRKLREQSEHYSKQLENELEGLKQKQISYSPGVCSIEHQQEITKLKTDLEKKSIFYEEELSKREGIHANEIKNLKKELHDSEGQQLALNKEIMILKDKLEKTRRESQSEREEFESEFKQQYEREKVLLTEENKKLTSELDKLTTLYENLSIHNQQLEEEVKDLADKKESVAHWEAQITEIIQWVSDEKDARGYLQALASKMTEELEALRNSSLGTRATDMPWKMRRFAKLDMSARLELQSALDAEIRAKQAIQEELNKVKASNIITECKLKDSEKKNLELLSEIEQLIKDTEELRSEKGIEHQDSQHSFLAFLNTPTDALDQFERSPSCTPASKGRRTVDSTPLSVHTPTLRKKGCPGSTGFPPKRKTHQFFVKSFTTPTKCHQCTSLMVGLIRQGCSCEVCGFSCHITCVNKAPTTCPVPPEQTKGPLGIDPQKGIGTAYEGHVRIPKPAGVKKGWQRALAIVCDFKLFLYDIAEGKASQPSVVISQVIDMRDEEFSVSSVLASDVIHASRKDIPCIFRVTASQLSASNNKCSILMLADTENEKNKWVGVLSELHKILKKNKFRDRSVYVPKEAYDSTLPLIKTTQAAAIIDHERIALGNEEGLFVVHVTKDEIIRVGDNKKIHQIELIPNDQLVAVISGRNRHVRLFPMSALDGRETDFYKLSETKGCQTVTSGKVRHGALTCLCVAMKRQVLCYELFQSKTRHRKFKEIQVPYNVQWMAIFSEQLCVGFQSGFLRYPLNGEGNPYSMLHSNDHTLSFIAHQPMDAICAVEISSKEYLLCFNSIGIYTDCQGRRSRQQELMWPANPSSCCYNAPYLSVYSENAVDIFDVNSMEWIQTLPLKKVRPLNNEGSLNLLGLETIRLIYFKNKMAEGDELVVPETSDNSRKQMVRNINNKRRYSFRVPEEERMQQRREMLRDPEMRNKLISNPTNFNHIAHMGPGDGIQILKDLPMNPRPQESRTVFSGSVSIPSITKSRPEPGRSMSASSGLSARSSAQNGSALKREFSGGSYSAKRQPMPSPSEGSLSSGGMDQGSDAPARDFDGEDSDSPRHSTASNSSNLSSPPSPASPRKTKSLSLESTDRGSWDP

CNc1ncc2cc(-c3ccc(-c4cccc(C)n4)cc3Cl)c(=O)n(CCCCN)c2n1 [compound 20, MRLW5]
ΔTm MRLW5 (20) [1]: 0.5 °C | ΔTm MRLW5 (20) [2]: 1.0 °C | ΔTm MRLW5 (20) [3]: 2.3 °C | ΔTm MRLW5 (20) [4]: -0.1 °C | ΔTm MRLW5 (20) [5]: -1.0 °C | ΔTm MRLW5 (20) [6]: -1.0 °C | ΔTm MRLW5 (20) [7]: 4.2 °C | ΔTm MRLW5 (20) [8]: 3.9 °C | ΔTm MRLW5 (20) [9]: 2.2 °C | ΔTm MRLW5 (20) [10]: 1.8 °C | ΔTm MRLW5 (20) [11]: -0.1 °C | ΔTm MRLW5 (20) [12]: 0.3 °C | ΔTm MRLW5 (20) [13]: 1.0 °C

CNc1ncc2cc(-c3ccc(-c4cccc(C)n4)cc3Cl)c(=O)n(CCC3CCNCC3)c2n1 [compound 22, 6-(2-Chloro-4-(6-methylpyridin-2-yl)phenyl)-2-(methylamino)-8-(2-(piperidin-4-yl)ethyl)pyrido[2,3-d]pyrimidin-7(8H)-one]
ΔTm 22 [1]: -1.4 °C | ΔTm 22 [2]: 1.5 °C | ΔTm 22 [3]: 4.6 °C | ΔTm 22 [4]: 0.4 °C | ΔTm 22 [5]: 0.5 °C | ΔTm 22 [6]: -4.0 °C | ΔTm 22 [7]: 4.0 °C | ΔTm 22 [8]: 5.1 °C | ΔTm 22 [9]: 2.6 °C | ΔTm 22 [10]: 1.4 °C | ΔTm 22 [11]: 0.2 °C | ΔTm 22 [12]: 0.3 °C | ΔTm 22 [13]: 1.8 °C

CNc1ncc2cc(-c3ccc(-c4cccc(C)n4)cc3Cl)c(=O)n(C[C@H]3CC[C@H](N)CC3)c2n1 [compound 23, 23]
ΔTm 23 [1]: 0.3 °C | ΔTm 23 [2]: 4.2 °C | ΔTm 23 [3]: 3.7 °C | ΔTm 23 [4]: 0.1 °C | ΔTm 23 [5]: -0.3 °C | ΔTm 23 [6]: -0.9 °C | ΔTm 23 [7]: 4.5 °C | ΔTm 23 [8]: 9.5 °C | ΔTm 23 [9]: 4.9 °C | ΔTm 23 [10]: 2.4 °C | ΔTm 23 [11]: -0.3 °C | ΔTm 23 [12]: 1.3 °C | ΔTm 23 [13]: 2.9 °C

Cc1cccc(-c2ccc(-c3cc4cnc(NC(CO)CO)nc4n(CCCCN)c3=O)c(Cl)c2)n1 [compound 24, 8-(4-Aminobutyl)-6-(2-chloro-4-(6-methylpyridin-2-yl)phenyl)-2-((1,3-dihydroxypropan-2-yl)amino)pyrido[2,3-d]pyrimidin-7(8H)-one]
ΔTm MR24 (24) [1]: -1.0 °C | ΔTm MR24 (24) [2]: -0.4 °C | ΔTm MR24 (24) [3]: 1.0 °C | ΔTm MR24 (24) [4]: 0.9 °C | ΔTm MR24 (24) [5]: 0.1 °C | ΔTm MR24 (24) [6]: -2.0 °C | ΔTm MR24 (24) [7]: 0.7 °C | ΔTm MR24 (24) [8]: 1.4 °C | ΔTm MR24 (24) [9]: 1.0 °C | ΔTm MR24 (24) [10]: 1.0 °C | ΔTm MR24 (24) [11]: -0.9 °C | ΔTm MR24 (24) [12]: 0.4 °C | ΔTm MR24 (24) [13]: -0.7 °C

Cc1cccc(-c2ccc(-c3cc4cnc(NCCCc5ccc(N)cc5)nc4n(CCCCN)c3=O)c(Cl)c2)n1 [compound 25, 8-(4-Aminobutyl)-2-((3-(4-aminophenyl)propyl)amino)-6-(2-chloro-4-(6-methylpyridin-2-yl)phenyl)pyrido[2,3-d]pyrimidin-7(8H)-one]
ΔTm 25 [1]: 0.6 °C | ΔTm 25 [2]: 2.9 °C | ΔTm 25 [3]: 2.0 °C | ΔTm 25 [4]: 2.1 °C | ΔTm 25 [5]: -0.1 °C | ΔTm 25 [6]: -2.3 °C | ΔTm 25 [7]: 4.5 °C | ΔTm 25 [8]: 6.5 °C | ΔTm 25 [9]: 3.5 °C | ΔTm 25 [10]: 4.0 °C | ΔTm 25 [11]: -0.5 °C | ΔTm 25 [12]: 2.6 °C | ΔTm 25 [13]: 0.0 °C

Cc1cccc(-c2ccc(-c3cc4cnc(NCCCN5CCOCC5)nc4n(CCCCN)c3=O)c(Cl)c2)n1 [compound 26, MR26]
ΔTm MR26 (26) [1]: -0.5 °C | ΔTm MR26 (26) [2]: -0.4 °C | ΔTm MR26 (26) [3]: 0.8 °C | ΔTm MR26 (26) [4]: 0.5 °C | ΔTm MR26 (26) [5]: -0.3 °C | ΔTm MR26 (26) [6]: -1.1 °C | ΔTm MR26 (26) [7]: 0.8 °C | ΔTm MR26 (26) [8]: 4.3 °C | ΔTm MR26 (26) [9]: 2.7 °C | ΔTm MR26 (26) [10]: 2.1 °C | ΔTm MR26 (26) [11]: -0.7 °C | ΔTm MR26 (26) [12]: 0.0 °C | ΔTm MR26 (26) [13]: -0.2 °C
